# Results: patent US20260165323A1, “USE OF STROBILURIN TYPE COMPOUNDS FOR COMBATING PHYTOPATHOGENIC FUNGI CONTAINING AN AMINO ACID SUBSTITUTION F129L IN THE MITOCHONDRIAL CYTOCHROME B PROTEIN CONFERRING RESISTANCE TO QO […]” (priority 2022, published 2026)
# Columns and labels:
# Format in all cases: in vivo
# [1] = system: Phakopsora pachyrhizi containing the amino acid substitution F129L in the mitochondrial cytochrome b protein; experiment: Use Example 2: protective control of soybean rust on soybeans (PHAKPA P6); details: inoculated six days after spraying, % diseased leaf area
# Procedure, shortened: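 Compound in acetone and/or DMSO with Wettol (99:1), diluted with water, was sprayed to run-off on potted soybean seedlings. After six days at 23–27°C and 60–80% RH, plants were inoculated with a Qo-resistant F129L strain and held 24 h at about 95% RH. Percent diseased leaf area was scored visually after up to 14 days.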
# [2] = system: Phakopsora pachyrhizi containing the amino acid substitution F129L in the mitochondrial cytochrome b protein; experiment: Use Example 1: protective control of soybean rust on soybeans (PHAKPA P2); details: inoculated 2 days after spraying, % diseased leaf area
# Procedure, shortened: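 Soybean seedling leaves sprayed to run-off with compound in acetone/DMSO–Wettol–water at the stated concentration, kept 2 days at 23-27° C, then inoculated with Qo-inhibitor-resistant F129L P. pachyrhizi. After 24 h at ~95% RH, 20-24° C, and up to 14 days in greenhouse, % diseased leaf area scored visually.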
# Puccinia recondita [3] = experiment: Use Example 4: preventative control of brown rust on wheat (PUCCRT P7); details: inoculated seven days after spraying, % diseased leaf area
# Procedure, shortened: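 First two leaves of potted wheat seedlings sprayed to run-off with compound in acetone/DMSO–emulsifier–water, then inoculated with Puccinia recondita spores seven days later. Plants held 24 h dark at 95–99% RH and 20–24 °C, then 9–11 days in greenhouse; diseased leaf area (%) scored visually.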
# Puccinia recondita [4] = experiment: Use Example 3: curative control of brown rust on wheat (PUCCRT K4); details: % diseased leaf area
# Procedure, shortened: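 Wheat seedlings inoculated with Puccinia recondita spores, held 24 h at 95–99% RH, 20–24° C in dark, then 3 days in greenhouse before spraying to run-off (curative). Compound in acetone/DMSO–Wettol–water. After 5–7 further days at 20–24° C, 65–70% RH, % diseased leaf area scored visually.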
SMILES,% PHAKPA (F129L) Disease level P6 at 4 ppm [1],% PHAKPA (F129L) Disease level P6 at 16 ppm [1],% PHAKPA (F129L) Disease level P2 at 4 ppm [2],% PHAKPA (F129L) Disease level P2 at 16 ppm [2],% PUCCRT Disease level P7 at 4 ppm (Puccinia recondita [3]),% PUCCRT Disease level P7 at 16 ppm (Puccinia recondita [3]),% PUCCRT Disease level K4 at 4 ppm (Puccinia recondita [4]),% PUCCRT Disease level K4 at 16 ppm (Puccinia recondita [4])
"CO/C=C(/C(=O)OC)c1cccc(Cl)c1CO/N=C(/C#Cc1ccc(F)cc1)COC [compound 7, Methyl (E)-2-[3-chloro-2-[[(Z)-[3-(4-fluorophenyl)-1-(methoxymethyl)prop-2-ynylidene]amino]oxymethyl]phenyl]-3-methoxy-prop-2-enoate]",11%,0%,2%,0%,35%,4%,70%,50%
CCOC/C(=N\OCc1c(Cl)cccc1/C(=N\OC)C(=O)NC)c1ccc(Cl)cc1 [compound 46],68%,16%,80%,20%,60%,10%,67%,38%
CO/C=C(/C(=O)OC)c1cccc(Br)c1CO/N=C(\COC)c1ccccc1 [compound 59],1%,0%,0%,0%,22%,0%,11%,0%
CCOCC(=NOCc1c(Cl)cccc1C(=COC)C(=O)OC)c1ccccc1 [compound 54],20%,3%,21%,1%,75%,27%,77%,30%
CCOC/C(=N\OCc1c(F)cccc1/C(=C\OC)C(=O)OC)c1ccc(F)cc1 [compound 16],70%,17%,20%,4%,80%,43%,83%,57%
CO/C=C(/C(=O)OC)c1cccc(Cl)c1CO/N=C(\COC)c1cccc(Cl)c1 [compound 39],10%,1%,2%,0%,3%,0%,9%,1%
CNC(=O)/C(=N/OC)c1cccc(Cl)c1CO/N=C(\COC)c1cccc(Cl)c1F [compound 99],17%,2%,21%,1%,42%,7%,82%,10%
"CO/C=C(/C(=O)OC)c1cccc(Cl)c1CO/N=C(\COC)c1ccccc1 [compound 11, Methyl-(E)-2-[3-chloro-2-[[(Z)-(2-methoxy-1-phenyl-ethylidene)amino]oxymethyl]phenyl]-3-methoxy-prop-2-enoate]",11%,0%,2%,0%,25%,1%,7%,0%
